Results published in patent US20210330686A1, “COMPOSITION CONTAINING 2'-FUCOSYLLACTOSE FOR PREVENTING STROKE” (Advanced Protein Technologies Corp., priority 2018, published 2021).

What was measured:
[1] = tested on: brain injury induced by middle cerebral artery occlusion (MCAO); assay: Behavioral test: spontaneous exercise of stroke-induced animals (MCAO model); format: in vivo, Sprague-Dawley rats
[2] = tested on: brain injury induced by middle cerebral artery occlusion (MCAO); assay: TTC staining of stroke-induced brain (MCAO model) after oral pre-administration; format: in vivo, Sprague-Dawley rats

2′-fucosyllactose [2′-FL] was tested, and the “exercise amount 2 days after stroke induction (D2)” value ([1]; oral 300 mg/kg for 3 days before MCAO) was “significantly increase”, the “exercise amount 2 days after stroke induction (D2)” value ([1]; oral 400 mg/kg for 3 days before MCAO) was “no statistically significant increase in exercise” and the “total exercise amount 2 days after stroke induction (D2)” value ([1]; oral pre-administration for 3 days, all doses) was “found to increase the total exercise amount”. The “brain damage compared to the control group not administered” value ([2]; experimental group administered with 2'-fucosyllactose) was “significantly suppressed” and the “brain damage suppression (TTC staining)” value ([2]; oral pre-administration 0-7 weeks, 200, 300, 400 mg/kg, before MCAO) was “the longer the 2′-FL pre-administration period and the higher the dose, the better the effect on brain damage suppression”.
